Consider one molecule from article PMC12715762, “Discovery of VU6052254: A Novel, Potent M1 Positive Allosteric Modulator” (ACS Chemical Neuroscience, 2025).

Entries after “also recorded” stand apart in the source; their conditions may differ.

For one data set, the target named is T1, hERG (Homo sapiens, UniProt Q12809).
T1 construct: Charles River
Put plainly: functional hERG manual patch clamp (MPC) assay. Type of data set: cell-based.

Data set [1] can be described thus: brain to plasma ratio (rat). The format is in vivo. The protocol:
covered in Principles of Laboratory Animal Care (National Institutes of Health). All rats were fasted overnight prior to testing.
For determination of the brain over plasma ratio (Kp), compounds were formulated in 8% ethanol, 32% PEG400 and 60% DMSO (v/v/v) and administered as a single 0.2 mg/kg IV dose (1 mL/kg) to male, Sprague Dawley rats (n = 1) via injection into a surgically-implanted jugular vein catheter. At 15 min post dosing, blood sample was collected into chilled, K2EDTA anticoagulant-fortified tube and immediately placed on wet ice. The blood sample was then centrifuged (1700 rcf, 5 minutes, 4 °C) to obtain plasma sample. At the same post-administration time point, whole brain sample was obtained by rapid dissection, rinsed with PBS, and immediately frozen in individual tissue collection box (dry ice). All brain and plasma samples were stored at -80 °C until […]
Sample Analysis: Concentrations in plasma and brain homogenates were quantified by liquid chromatography tandem mass spectrometry (LC-MS/MS). Whole brains were homogenized in 3 mL of 70:30 IPA:water in a mini bead beater for 3 min, and centrifuged at 3,500 g for 5 min. 5 uL of the supernatant was diluted in 15 uL of blank plasma for quantification of the analytes. Plasma samples were centrifuged at 3,500 g for 5 min. […]
Plasma and brain tissue samples originating from in vivo studies were analyzed by electrospray ionization using an AB Sciex Q-TRAP 5500 (Foster City, CA) that was coupled to a Shimadzu LC-20AD pump (Columbia, MD) and a Leap Technologies CTC PAL auto-sampler (Carrboro, NC). […]
min, with an isocratic hold for 0.5 min, before transitioning to 10% B over 0.05 min. […] All data were analyzed using AB Sciex Analyst 1.5.1 software.
Brain plasma concentration ratio (Kp) was calculated by dividing brain concentration by plasma concentration for each animal. Unbound brain to unbound plasma concentration ratio (Kp,uu) is calculated using the following formula: Kp,uu = (Brain ng/g x brain fu)/(plasma ng/ml x plasma fu). […]

For the next data set, the system named is Sprague-Dawley rats. Put plainly: novel object recognition (NOR). Type of data set: in vivo, rat. The protocol: monitored continuously and scored for behavioral manifestations of seizure activity at 5, 15, 30 min, and 1 h. Behavioral manifestations of seizures were scored using a modified Racine scoring system. Briefly, a score of 0 represents no behavior alterations; score 1, immobility, mouth and facial movements, or facial clonus; score 2, head nodding, tail extension; score 3, forelimb clonus, repetitive movements; score 4, rearing and tonic clonic seizure; and score 5, continuous rearing and falling, severe generalized tonic clonic seizure.
Novel Object Recognition Task
Rats were habituated for 10 min for 2 consecutive days in an empty novel object recognition (NOR) arena consisting of dark-colored plexiglass box (40 × 64 × 33 cm3). On day 3 rats were administered vehicle, M1 PAM 3 (1-10 mg/kg, p.o.., 10 mL/kg, n = 13-18), or M 1 PAM 5 (0.3-3 mg/kg, p.o.., 10 mL/kg, n = 16-18) and returned to their home cage for 60 min (M 1 PAM 5) or 2 hr (M1 PAM 3. Rats were then placed in the NOR arena containing two identical objects for 10 min. Following the exposure period, rats were placed back into their home cages for 24 h. The rats were then returned to the arena in which one of the previously exposed (familiar) objects was replaced by a novel object and were video recorded for 5 min while they explored the two objects.
Time spent exploring each object was scored by an observer blinded to the experimental conditions and the recognition index was calculated as [(time spent exploring novel object) – (time spent exploring familiar object)]/total time exploring objects.

The target of a further data set is Adenosine A1 (Homo sapiens, UniProt P30542). Put plainly: Eurofins radioligand binding.
A further data set addresses Adrenergic α1A (Homo sapiens, UniProt P35348). Put plainly: Eurofins radioligand binding.
Data set [2] deals with Calcium Channel L-Type, Dihydropyridine. Put plainly: Eurofins radioligand binding. The note with it: Rat.
For a further data set, the target named is Cannabinoid CB1 (Homo sapiens, UniProt P21554). Kind of data set: Eurofins radioligand binding.
The next data set addresses Endothelin ETA (Homo sapiens, UniProt P25101). Kind of data set: Eurofins radioligand binding.
The target in another data set is Histamine H2 (Homo sapiens, UniProt P25021). Kind of data set: Eurofins radioligand binding.
The target of another data set is hERG potassium channel (Homo sapiens, UniProt Q12809). Put plainly: Eurofins radioligand binding.
For data set [3], the system named is Purinergic P2Y, Non-Selective. Put plainly: Eurofins radioligand binding. The note with it: Rat.

Sequence of Adrenergic α1A (P35348 whole entry): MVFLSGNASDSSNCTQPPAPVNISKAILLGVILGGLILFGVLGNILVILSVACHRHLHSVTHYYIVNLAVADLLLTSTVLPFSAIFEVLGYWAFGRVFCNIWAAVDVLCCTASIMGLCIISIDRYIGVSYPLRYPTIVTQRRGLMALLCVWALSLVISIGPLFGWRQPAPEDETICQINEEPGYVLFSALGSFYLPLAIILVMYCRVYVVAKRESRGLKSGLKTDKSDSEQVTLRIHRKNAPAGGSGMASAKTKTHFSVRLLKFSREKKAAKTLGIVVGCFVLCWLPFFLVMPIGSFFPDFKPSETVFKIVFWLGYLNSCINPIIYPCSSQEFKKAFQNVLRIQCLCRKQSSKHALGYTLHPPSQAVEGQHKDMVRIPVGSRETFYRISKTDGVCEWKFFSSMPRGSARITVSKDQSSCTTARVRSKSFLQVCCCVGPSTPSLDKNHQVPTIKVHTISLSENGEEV
T1 sequence (Q12809 whole entry): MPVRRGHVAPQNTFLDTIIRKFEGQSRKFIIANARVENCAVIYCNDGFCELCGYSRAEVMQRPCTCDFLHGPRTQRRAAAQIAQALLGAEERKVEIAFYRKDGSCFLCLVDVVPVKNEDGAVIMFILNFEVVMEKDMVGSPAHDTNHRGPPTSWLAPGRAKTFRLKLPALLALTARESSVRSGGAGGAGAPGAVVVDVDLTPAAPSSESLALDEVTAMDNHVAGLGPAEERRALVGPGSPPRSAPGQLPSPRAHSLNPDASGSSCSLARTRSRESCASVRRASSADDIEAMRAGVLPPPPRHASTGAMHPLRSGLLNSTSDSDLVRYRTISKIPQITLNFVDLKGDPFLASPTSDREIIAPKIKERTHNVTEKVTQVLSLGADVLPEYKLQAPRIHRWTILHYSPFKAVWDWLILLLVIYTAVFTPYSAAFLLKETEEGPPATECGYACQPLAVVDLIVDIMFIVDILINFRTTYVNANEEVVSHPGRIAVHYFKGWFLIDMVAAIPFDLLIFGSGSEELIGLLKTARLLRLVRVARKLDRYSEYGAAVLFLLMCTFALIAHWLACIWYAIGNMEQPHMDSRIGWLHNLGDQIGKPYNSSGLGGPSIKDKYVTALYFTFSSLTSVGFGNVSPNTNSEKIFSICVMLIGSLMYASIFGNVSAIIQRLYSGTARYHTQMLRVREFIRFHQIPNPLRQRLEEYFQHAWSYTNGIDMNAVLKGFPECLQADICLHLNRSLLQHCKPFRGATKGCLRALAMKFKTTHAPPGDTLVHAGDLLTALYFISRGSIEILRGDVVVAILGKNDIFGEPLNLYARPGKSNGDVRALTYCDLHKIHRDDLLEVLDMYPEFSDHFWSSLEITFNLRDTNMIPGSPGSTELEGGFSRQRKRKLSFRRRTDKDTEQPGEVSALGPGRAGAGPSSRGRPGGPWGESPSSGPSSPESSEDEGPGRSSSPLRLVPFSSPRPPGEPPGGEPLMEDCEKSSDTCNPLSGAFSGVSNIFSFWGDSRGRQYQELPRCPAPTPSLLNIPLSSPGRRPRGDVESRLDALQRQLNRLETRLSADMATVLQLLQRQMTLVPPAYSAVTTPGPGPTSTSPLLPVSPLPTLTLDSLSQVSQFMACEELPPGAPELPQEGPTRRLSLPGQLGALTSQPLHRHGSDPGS
Sequence of hERG potassium channel (Q12809 whole entry): as above
Sequence of Cannabinoid CB1 (P21554 whole entry): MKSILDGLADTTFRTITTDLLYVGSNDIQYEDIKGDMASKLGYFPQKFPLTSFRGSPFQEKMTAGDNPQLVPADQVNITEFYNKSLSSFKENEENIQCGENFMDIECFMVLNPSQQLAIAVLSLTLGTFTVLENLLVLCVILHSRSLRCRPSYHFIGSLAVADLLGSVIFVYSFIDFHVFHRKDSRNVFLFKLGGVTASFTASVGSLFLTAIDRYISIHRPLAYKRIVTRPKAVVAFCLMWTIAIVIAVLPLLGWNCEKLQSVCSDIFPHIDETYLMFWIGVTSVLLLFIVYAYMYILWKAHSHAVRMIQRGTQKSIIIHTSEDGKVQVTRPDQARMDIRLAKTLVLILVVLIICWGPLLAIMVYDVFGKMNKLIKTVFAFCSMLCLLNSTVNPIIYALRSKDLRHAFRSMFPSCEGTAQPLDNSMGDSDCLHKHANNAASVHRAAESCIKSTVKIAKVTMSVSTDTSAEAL
Sequence of Histamine H2 (P25021 whole entry): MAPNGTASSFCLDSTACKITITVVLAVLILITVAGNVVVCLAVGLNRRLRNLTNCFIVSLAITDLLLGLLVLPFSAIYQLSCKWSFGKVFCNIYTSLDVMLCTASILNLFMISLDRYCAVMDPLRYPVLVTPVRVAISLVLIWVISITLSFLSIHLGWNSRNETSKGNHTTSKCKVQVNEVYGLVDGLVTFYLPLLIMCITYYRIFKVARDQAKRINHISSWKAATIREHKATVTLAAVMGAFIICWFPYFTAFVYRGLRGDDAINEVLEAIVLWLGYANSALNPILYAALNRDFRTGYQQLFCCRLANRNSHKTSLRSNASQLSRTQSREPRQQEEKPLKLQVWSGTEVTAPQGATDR
Sequence of Adenosine A1 (P30542 whole entry): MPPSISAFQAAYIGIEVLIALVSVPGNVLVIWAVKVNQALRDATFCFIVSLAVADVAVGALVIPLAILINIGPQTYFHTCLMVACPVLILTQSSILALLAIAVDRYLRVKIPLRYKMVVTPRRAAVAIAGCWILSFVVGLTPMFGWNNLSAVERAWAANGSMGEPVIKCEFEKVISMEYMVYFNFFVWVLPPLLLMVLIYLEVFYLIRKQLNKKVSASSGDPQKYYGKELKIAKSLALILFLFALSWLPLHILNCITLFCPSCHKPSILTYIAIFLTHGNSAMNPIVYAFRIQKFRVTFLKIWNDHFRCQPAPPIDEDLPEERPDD
Sequence of Endothelin ETA (P25101 21-427): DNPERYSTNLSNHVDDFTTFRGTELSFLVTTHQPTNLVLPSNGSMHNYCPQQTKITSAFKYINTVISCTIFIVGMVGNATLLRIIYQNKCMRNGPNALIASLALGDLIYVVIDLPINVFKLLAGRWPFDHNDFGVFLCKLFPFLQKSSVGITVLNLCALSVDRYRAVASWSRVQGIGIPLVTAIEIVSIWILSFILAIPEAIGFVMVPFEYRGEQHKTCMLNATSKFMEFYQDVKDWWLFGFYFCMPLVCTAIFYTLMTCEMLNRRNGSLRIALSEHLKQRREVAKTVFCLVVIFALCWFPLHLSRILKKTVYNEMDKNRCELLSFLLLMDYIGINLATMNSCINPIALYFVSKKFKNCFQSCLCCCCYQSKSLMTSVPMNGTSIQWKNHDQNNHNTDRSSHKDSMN

The IC50 is the concentration needed to halve the response being measured. Usually Kp stands for the ratio of the level in a tissue or fluid to that in plasma or blood. Usually inhibition stands for the drop in the measured response relative to a control, in per cent. As a reminder, the % Inhibition is the change of the read-out against control, counted positive when it falls. With `Cn1cc2c(-c3cc(F)c(CN4Cc5ncccc5C4=O)c(F)c3)ccc(C(C)(C)O)c2n1` [compound 7], at hERG, the IC50 is greater than 30 µM. Besides, in [1] (brain:plasma), the Kp was found to be 1.08. Moreover, the Kp at 15 min in data set [1] (male, Sprague Dawley, brain and plasma, intravenous, 0.2 mg/kg, brain:plasma) came out at 1.07. Moreover, the Kp uu at 15 min in data set [1] (male, Sprague Dawley, brain and plasma, intravenous, 0.2 mg/kg, unbound brain:unbound plasma) was 1.27. Moreover, the “free brain concentration at NOR MED” value with Sprague-Dawley rats (1 mg/kg PO, rat) turned out to be 71 nM. For the same molecule, the “effect on recognition index / recognition memory in NOR” value in the data set on Sprague-Dawley rats (0.3 to 3.0 mg/kg PO, result in words) was “dose-dependently increased the recognition index; also recorded: dose-dependently enhanced the recognition memory”. Also, in the data set with Sprague-Dawley rats (PO, 10% Tween 80 in water, male Sprague-Dawley rats), the “minimum effective dose (MED) in rat NOR” value is 1 mg/kg. Moreover, in the data set with Sprague-Dawley rats (rat, in vivo), the “margin in terms of dose, NOR MED relative to the seizure assay and the Irwin battery” value was roughly 50 fold. Also, in the data set on Sprague-Dawley rats (rat, in vivo), the “margin in terms of total brain exposure, NOR MED relative to the seizure assay and the Irwin battery” value is given as 11- to 16 fold. For the same molecule, the inhibition at 10 µM was -2% on Adenosine A1; 13% at Adrenergic α1A; 25% at Cannabinoid CB1; 11% at Endothelin ETA; 2% at Histamine H2; 2% on hERG potassium channel. Further, the figures for the “% Inhibition at 10 µM” value in data set [2] and in [3] were 59% and 21%, respectively.
